Results published in PMC6384922, “Potent in Vitro α-Glucosidase Inhibition of Secondary Metabolites Derived from Dryopteris cycadina” (Molecules, 2019).
Values joined by “and” are separate entries in the source; they are usually repeats but may differ in a detail not shown here. Equal values may be shown once. Read-outs that look alike come from different tables or passages of the source.

Tests used:
[1] = molecular target: T1, α-glucosidase (EC3.2.1.20) (Saccharomyces cerevisiae, UniProt P07265); assay: biochemical; settings: for IC50: α-glucosidase, mean ± SEM of three independent readings; for inhibition at 500 µM: read-out: maximum α-glucosidase inhibitory activity (% inhibition)
T1 construct: purchased Sigma Aldrich
Method: The α-glucosidase (Saccharomyces cerevisiae) inhibitory assay was carried out with slight modifications according to the method described in [21, 26, 27]. For the evaluation of α-glucosidase inhibitory activity, 10 µl of freshly prepared phosphate buffer (pH 6.8) were plated in triplicate for a micro-well plate with the help of a micropipette. Then, 30 µL of α-glucosidase enzyme with a concentration of 0.017 units/mL of 70% ethanol and 10 µL of test compound solution were added to the same well plate. The plates were then incubated for 15 min at 37 °C and an initial reading was taken at 405 nm using the ELISA micro plate reader. Furthermore, 100 µl of 0.7mM PNPG substrate was added to each well of the plate and again incubated at 37 °C for 30 min, forming a yellow color. The final reading was taken again at λ max 405 nm using the ELISA plate reader. […] Each reading was taken in triplicate. The percent inhibition was calculated using the following formula, % inhibition = [(A negative control − A test sample)/A negative control] × 100, where A is absorbance.
The half-maximal inhibitory concentration values were determined using the Graphpad Prism version 7.0 software (San Diego, CA, USA. All values are represented as mean ± SEM.

[2] = molecular target: T1, α-glucosidase (EC3.2.1.20); parameters: method as in PMID 18341288; settings: cited from earlier work

T1 sequence (P07265 whole entry): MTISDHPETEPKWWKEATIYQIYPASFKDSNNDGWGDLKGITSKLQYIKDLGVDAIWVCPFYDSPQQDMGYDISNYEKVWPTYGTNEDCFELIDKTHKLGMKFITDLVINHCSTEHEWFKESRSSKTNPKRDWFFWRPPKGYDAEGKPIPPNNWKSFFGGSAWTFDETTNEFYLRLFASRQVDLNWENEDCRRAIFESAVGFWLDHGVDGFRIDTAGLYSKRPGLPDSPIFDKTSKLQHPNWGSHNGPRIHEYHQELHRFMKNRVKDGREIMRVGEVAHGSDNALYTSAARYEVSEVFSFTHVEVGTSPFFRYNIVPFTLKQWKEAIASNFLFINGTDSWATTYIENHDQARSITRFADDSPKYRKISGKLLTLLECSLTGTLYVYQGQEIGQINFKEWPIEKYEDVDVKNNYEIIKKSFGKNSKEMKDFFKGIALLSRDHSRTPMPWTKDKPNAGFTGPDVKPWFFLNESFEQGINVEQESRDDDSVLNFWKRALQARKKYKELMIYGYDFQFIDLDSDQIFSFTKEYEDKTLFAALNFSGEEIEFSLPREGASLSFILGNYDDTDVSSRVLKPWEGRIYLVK

Row | SMILES | IC50 ([1]; IC50 ± SEM) | inhibition at 500 µM [1] [%] | α-glucosidase inhibitory activity in previous studies [2] | IC50 ([1]; read-out: IC50 ± SEM) [µM]
1 | CC[C@H](CC[C@@H](C)[C@H]1CC[C@H]2[C@@H]3CC=C4C[C@@H](O)CC[C@]4(C)[C@H]3CC[C@]12C)C(C)C [Compound 1, β-Sitosterol] | 143 ± 0.47 µM | 92.9 | inactive | –
2 | CCC(CCC(C)C1CCC2C3CC=C4CC(OC5OC(CO)C(O)C(O)C5O)CCC4(C)C3CCC12C)C(C)C [Compound 2, β-Sitosterol3-O-β-D-glucopyranoside] | – | 92 | – | 314 ± 4.58
3 | Cc1ccc(C2Oc3cc(O)cc(O)c3C(=O)C2O)cc1 (stereo not shown) [Compound 3, 3,5,7-trihydroxy-2-(p-tolyl) chorman-4-one] | 136 µM and 133 µM | 94 | – | –
